Test results from patent US20040209956A1 (priority 2003, published 2004).

Key:
Type in all cases: physicochemical
[1] = Solubility of Form II in acetonitrile/ethanol 3A mixtures; settings: equilibrated nineteen days; for Solubility, 70/30 ACN/EtOH 3A wt. % S-[2-[(1-Iminoethyl)amino]ethyl]-2-methyl-L-cysteine: 70/30 v/v acetonitrile/ethanol 3A; for Solubility, 90/10 ACN/EtOH 3A wt. % S-[2-[(1-Iminoethyl)amino]ethyl]-2-methyl-L-cysteine: 90/10 v/v acetonitrile/ethanol 3A
Source text: Excess solids were equilibrated in these solvents at the appropriate temperature (in a shaker bath) for nineteen days. Supernatant samples were withdrawn and analyzed by HPLC for concentration of S-[2-[(1-Iminoethyl)amino]ethyl]-2-methyl-L-cysteine.

[2] = Solubility experiments in acetonitrile/water with and without excess maleic acid; settings: 90/10 acetonitrile/water with excess maleic acid; nineteen days at 5° C.; slurry in single liquid phase, solids form II
Description: These vials were then placed in a shaker bath at 5° C. After four days of equilibration when the vials were observed, it was discovered that the system had turned from a suspension of solids in a single liquid phase to a biphasic liquid with no suspended solids. Both layers from each of the three vials were analyzed for water content (through Karl-Fischer analysis) and concentration of the compound. […] It is worth pointing out though that the exact conditions leading to measured concentrations in the top layer could only be truly established when the partitioning of excess maleic acid is established between the two layers. The bottom layer (rich in water) would most likely be under-saturated since no excess solids remained. This possibility is substantiated by the solubility data on the bottom layer, where the concentrations are found to be very similar across all the experiments. While the vial at 70/30 acetonitrile/water with excess maleic acid remained biphasic even after nineteen days, the 70/30 acetonitrile/water vial without any excess maleic acid after five days had some very large crystals floating in a solution that still seemed biphasic. […] These crystals were used to obtain crystallography data. After nineteen days of equilibration at 5° C., the 90/10 acetonitrile/water vial with excess maleic acid had turned back into a slurry of solids in a single liquid phase.

[3] = Moisture sorption of Form II by DVS moisture balance; settings: 25° C.
Source text: However, the solids re-hydrate equally easily when exposed to R.H. greater than 10%. […] The behavior of form II during this experiment was typical of a highly crystalline channel hydrate/solvate.

S-[2-[(1-Iminoethyl)amino]ethyl]-2-methyl-L-cysteine maleate crystalline salt Form II
Solubility, 70/30 ACN/EtOH 3A wt. % S-[2-[(1-Iminoethyl)amino]ethyl]-2-methyl-L-cysteine ([1]; 5 ° C.): 0.679 wt. %
Solubility, 70/30 ACN/EtOH 3A wt. % S-[2-[(1-Iminoethyl)amino]ethyl]-2-methyl-L-cysteine ([1]; 25 ° C.): 0.737 wt. %
Solubility, 90/10 ACN/EtOH 3A wt. % S-[2-[(1-Iminoethyl)amino]ethyl]-2-methyl-L-cysteine ([1]; 5 ° C.): 0.169 wt. %
Solubility, 90/10 ACN/EtOH 3A wt. % S-[2-[(1-Iminoethyl)amino]ethyl]-2-methyl-L-cysteine ([1]; 25 ° C.): 0.135 wt. %
Concentration in the solution phase, S-[2-[(1-Iminoethyl)amino]ethyl]-2-methyl-L-cysteine [2]: 0.613 wt %
Cycling between sorption and de-sorption cycles ([3]; DVS moisture balance): did not show any hysteresis or loss of crystallinity
Moisture gain ([3]; between 10 and 70% R.H.): ~2.5%
Moisture gain ([3]; between 70 and 90% R.H.): ~4.5%
